Experimental data published in paper PMC7577153, “Identification of Small-Molecule Inhibitors Targeting Porphyromonas gingivalis Interspecies Adherence and Determination of Their In Vitro and In Vivo Efficacies” (Antimicrobial Agents and Chemotherapy, 2020).
Where two headings read alike, the source gives them in different places. Marks after values point to notes of the source that are not given here.

Experiments:
[1] = system: P. gingivalis adherence to S. gordonii; assay: organism not typed; assay type: cell-based, Porphyromonas gingivalis; conditions: for dose-dependent inhibition of P. gingivalis adherence and biofilm formation: 5, 10, 15, 25, and 40 μM; for inhibition at 40 µM: read-out: inhibition of P. gingivalis adherence to S. gordonii and biofilm formation
Procedure: Using the two species biofilm model described by Patil et al. ([19]), the in vitro effectiveness of the compounds was determined by their ability to inhibit P. gingivalis adherence to S. gordonii and subsequent biofilm formation at an initial concentration of 40 μM.
To quantify P. gingivalis adherence to S. gordonii, a two-species biofilm model was employed as previously described ([19], [33]). Briefly, 20 ml of an overnight culture of S. gordonii was centrifuged at 5600 × g (MIKRO 220R, Hettich Zentrifugen) for 10 min, and the harvested cells were washed with phosphate-buffered saline (PBS; 10 mM Na2HPO4, […], […], and 2.7 mM KCl [pH 7.2]). To label S. gordonii, the cell pellet was suspended in 1 ml of PBS containing 20 μl of 5 mg/ml of hexidium iodide (Molecular Probes; Eugene, OR) and incubated in the dark for 15 min at room temperature with gentle shaking. The labeled cells were than centrifuged at 5600 × g for 5 min and washed twice with PBS. Finally, the cells were suspended in PBS to a final optical density at 600 nm (OD600) of 0.6, and 1 ml of labeled S. gordonii cells was added to each well of a 12-well microtiter plate (Greiner Bio-one, Monroe, NC) containing a circular coverslip (Fisher Scientific, Hampton, NH). Plates were incubated at 37°C for 24 h under anaerobic conditions on a rotary shaker. On the following day, cells from a 10-ml overnight P. gingivalis culture were harvested as described above and fluorescent labeling was performed by incubating the cells in 1 ml PBS containing 20 μl of 5(6)-carboxyfluorescein N-hydroxysuccinimide ester (4 mg/ml) (Thermo Fisher, Waltham, MA) for 30 min in the dark at room temperature with gentle shaking. After being washed two times with PBS, the labeled cells were suspended in PBS at a final OD600 of 0.4. While this reaction was carried out, unattached S. gordonii cells were removed from each well by aspiration, and subsequently, 1 ml of labeled P. gingivalis cells alone or with the desired concentration of the compounds to be tested was added to each well of the microtiter plates. Plates were incubated at 37°C for 24 h under anaerobic conditions. The compounds that were tested were initially dissolved in dimethyl sulfoxide (DMSO) to generate a 1,000× stock solution and subsequently diluted in the cell suspensions to obtain the working concentration. For the control wells, DMSO without a test compound was added to a final concentration of 0.1% in order to maintain a constant DMSO concentration in all wells.
Unbound P. gingivalis cells were removed from each well by aspiration, and the coverslips were washed twice with 5 ml of PBS. Biofilms were then fixed with 4% paraformaldehyde for 5 min in the dark and washed two times with 5 ml of PBS. The coverslips were mounted on a glass slide (Sigma-Aldrich) containing a drop of Prolong gold anti-fade agent (Molecular Probes, Eugene, OR) and sealed with transparent nail polish.
Visualization of the biofilms was carried out by laser scanning confocal microscopy using an SP8 confocal microscope (Leica Microsystems, Inc., Buffalo Grove, IL), with the laser source settings at 488 nm and 552 nm to visualize P. gingivalis and S. gordonii, respectively. Images were collected using a Z plane scan for a depth of 25 μm using a Z step thickness of 0.7 μm. Background noise was reduced using the software that was supplied with the Leica SP8 microscope. Three-dimensional reconstruction of the Z plane scans and quantification of the red and green channel fluorescence were performed using Volocity 6.3 image analysis software (PerkinElmer, Waltham, MA).

HL60 cells [2] = assay: LDH release (CytoTox 96); assay type: cell-based, human; conditions: 18 h
Procedure: (§1) The CytoTox 96 nonradioactive cytotoxicity assay (Promega Inc. Madison, WI) was used to determine extracellular lactate dehydrogenase activity (LDH) in TIGK, J774A.1, and HL60 cell cultures treated with the test compounds. […] After an 18-h incubation, the cell supernatant was collected by centrifugation at 250 × g for 4 min, and 50 μl of cell free supernatant was transferred into wells of a fresh 96-well microtiter plate. Subsequently, 50 μl of the LDH substrate was added in each well and incubated at room temperature for 30 min. Reactions were stopped by adding 50 μl of the stop solution according to the manufacturer’s protocol, and the endpoint was measured by determining optical density at 490 nm. Cells treated with culture medium containing 0.1% DMSO or with medium alone served as negative controls, and cells incubated with 15-μl lysis buffer (supplied by manufacturer) for 1 h served as a positive control for lysis. All samples were tested in triplicate.

TIGK cells [3] = assay: LDH release (CytoTox 96); assay type: cell-based, human; conditions: 18 h
Procedure: as §1

J774A.1 cells [4] = assay: LDH release (CytoTox 96); assay type: cell-based, mouse; conditions: 18 h
Procedure: as §1

HL60 cells [5] = assay: total cellular ATP (CellTiterGlo); assay type: cell-based, human; conditions: HL-60 cells, 5, 20 and 40 μM, 18 h
Procedure: (§2) To determine the metabolic activity of cells, the total cellular ATP level was measured in cell culture samples using the CellTiterGlo reagent (Promega Inc. Madison, WI). Cells were grown as described above in the presence of the desired concentration of compounds. The spent medium was decanted, and cells were washed three times with PBS and subsequently incubated with 100 μl of the CellTiterGlo substrate. To facilitate the reaction, plates were incubated at room temperature for 2 min with shaking and for an additional 10 min without shaking. Total light production was measured using a Victor 3 multilabel plate reader (PerkinElmer).

TIGK cells [6] = assay: total cellular ATP (CellTiterGlo); assay type: cell-based, human; conditions: 18 h, versus negative controls
Procedure: as §2

J774A.1 cells [7] = assay: total cellular ATP (CellTiterGlo); assay type: cell-based, mouse; conditions: J774A.1 cells, 5, 20 and 40 μM, 18 h
Procedure: as §2

TIGK cells [8] = conditions: 18 h
Procedure: (§3) The mouse macrophage cell line J774A.1 was grown in Dulbecco’s modified Eagle medium (DMEM) (Thermo Fisher Scientific, Waltham, MA) supplemented with 4.5 g/ml glucose, 10% fetal bovine serum (FBS), and 100 U/ml penicillin-streptomycin (Sigma-Aldrich, St. Louis, MO). HL60 (ATCC CCL240) cells were obtained from the American Type Culture Collection and cultured in Iscove’s modified Dulbecco’s medium (Sigma-Aldrich) supplemented with 20% fetal bovine serum (FBS) (Sigma-Aldrich).
(§4) The apoptotic activity of the compounds was determined using the phycoerythrin (PE) annexin V/dead cell apoptosis kit with Sytox green for flow cytometry (Invitrogen, Carlsbad, CA). Cells were grown in 12-well flat-bottom microtiter plates at an initial density 2 × 10^5 cells in 1.5-ml medium per well for 24 h. Following the incubation period, spent medium was replaced with fresh medium containing the desired concentration of the test compound and incubated for another 18 h. After trypsinization, cells were harvested by centrifuging at 250 × g for 4 min, and the cell pellet was suspended in 100 μl of binding buffer supplemented with 1 μl Sytox and 5 μl annexin V, followed by incubation at 37°C for 15 min. Samples were then diluted by adding 400-μl binding buffer, and flow cytometry was performed using a FACScalibur flow cytometer (Becton, Dickinson, Franklin Lakes, NJ), measuring the fluorescence emissions at 530 nm and 575 nm.

J774A.1 cells [9] = conditions: 18 h
Procedure: as §3, §4

| Structure (SMILES) | dose-dependent inhibition of P. gingivalis adherence and biofilm formation [1] | inhibition at 40 µM [1] [%] | cellular ATP levels (TIGK cells [6]) | Early apoptosis (%) (TIGK cells [8]; 5 μM) | Late apoptosis/necrosis (%) (TIGK cells [8]; 5 μM) | Live cells (%) (TIGK cells [8]; 5 μM) | Early apoptosis (%) (TIGK cells [8]; 20 μM) | Late apoptosis/necrosis (%) (TIGK cells [8]; 20 μM) | Live cells (%) (TIGK cells [8]; 20 μM) | Early apoptosis (%) (TIGK cells [8]; 40 μM) | Late apoptosis/necrosis (%) (TIGK cells [8]; 40 μM) | Live cells (%) (TIGK cells [8]; 40 μM) | Early apoptosis (%) (J774A.1 cells [9]; 5 μM) | Late apoptosis/necrosis (%) (J774A.1 cells [9]; 5 μM) | Live cells (%) (J774A.1 cells [9]; 5 μM) | Early apoptosis (%) (J774A.1 cells [9]; 20 μM) | Late apoptosis/necrosis (%) (J774A.1 cells [9]; 20 μM) | Live cells (%) (J774A.1 cells [9]; 20 μM) | Late apoptosis/necrosis (%) (J774A.1 cells [9]; 40 μM) | Live cells (%) (J774A.1 cells [9]; 40 μM) | other results |
| --- | --- | --- | --- | --- | --- | --- | --- | --- | --- | --- | --- | --- | --- | --- | --- | --- | --- | --- | --- | --- | --- |
| Cc1cc([C@H]2CCCN(CC(=O)NC3(C#N)CCCC3)C2)n[nH]1 [V8, N-(1-cyanocyclopentyl)-2-[3-(5-methyl-1H-pyrazol-3-yl)piperidin-1-yl] acetamide] | inhibited P. gingivalis adherence and biofilm formation in a dose-dependent manner | ≥ 40 | did not significantly differ from the negative controls | 3.1 | 4.2 | 91.6 | 2.1 | 3.5% | 92.8 | 2.4 | 3.4% | 92.8 | 1.1 | 8.3 | 85.1 | 0.9 | 8.0 | 83.4 | 9.1 | 84.3 | LDH release (HL60 cells [2]; HL-60 cells, 5, 20 and 40 μM): no significant effect; LDH release (TIGK cells [3]; versus negative controls): did not significantly differ from the negative controls; LDH release (J774A.1 cells [4]; J774A.1 cells, 5, 20 and 40 μM): no significant effect; ATP levels (HL60 cells [5]): no significant effect; ATP levels (J774A.1 cells [7]): no significant effect |
| Cl.N=c1n(CCN2CCCCC2)c2ccccc2n1CC(O)COc1ccc(Cl)cc1 (stereo not shown) [N7, 1-(4-chlorophenoxy)-3-{2-imino-3-[2-(piperidin-1-yl)ethyl]-2,3-dihydro-1H-1,3-benzodiazol-1-yl}propan-2-ol hydrochloride] | inhibited P. gingivalis adherence and biofilm formation in a dose-dependent manner | 40 | significantly reduced cellular ATP levels | 2.4 | 8.3 | 86.8 | 1.0 | 14.9* % | 74.5 | 5.9 | 40.7* % | 48.3 | 2.5 | 5.5 | 83.9 | 16.9 | 46.6 | 33.4 | 38.0 | 36.2 | LDH release (HL60 cells [2]; HL-60 cells, 20 μM and 40 μM): significant increases; LDH release (TIGK cells [3]; 40 μM): significant increase in LDH release; LDH release (J774A.1 cells [4]; J774A.1 cells, 20 μM and 40 μM): significant increases; Early apoptosis (%) (J774A.1 cells [9]; 40 μM): 24.9% |
| O=C(Nc1ccccc1O)c1cccc(N2C(=O)c3ccc(C(=O)Nc4ccccc4O)cc3C2=O)c1 [N17, N-(2-hydroxyphenyl)-2-{3-[(2-hydroxyphenyl)carbamoyl]phenyl}-1,3-dioxo-2,3-dihydro-1H-isoindole-5-carboxamide] | inhibited P. gingivalis adherence and biofilm formation in a dose-dependent manner | 60 | did not significantly differ from the negative controls | 2.9 | 4.2 | 90.7 | 2.4 | 3.6% | 92.4 | 1.5 | 5.1% | 91.6 | 1.0 | 6.1 | 87.8 | 1.0 | 6.9 | 85.3 | 6.6 | 87.3 | IC50 ([1]; Porphyromonas gingivalis, read-out: 50% inhibitory concentration (IC50) of P. gingivalis adherence in vitro): ~18 µM; LDH release (HL60 cells [2]; HL-60 cells, 5, 20 and 40 μM): no significant effect; LDH release (TIGK cells [3]; versus negative controls): did not significantly differ from the negative controls; LDH release (J774A.1 cells [4]; J774A.1 cells, 5, 20 and 40 μM): no significant effect; ATP levels (HL60 cells [5]): no significant effect; ATP levels (J774A.1 cells [7]): no significant effect; Early apoptosis (%) (J774A.1 cells [9]; 40 μM): 1.2% |
